How the values were obtained:
[1] = tested on: Male Swiss mice; test: Elevated plus maze (EPM), Example 9; type: in vivo; details: 10 mg/kg ip
Procedure: (§1) Male Swiss mice (25-30 g) originated from the Central Animal Farm of the School of Medicine of Ribeirão Preto (FMRP-USP) were maintained in groups of five animals per box (41×33×17 cm) in a temperature controlled room (24±2° C.) with a 12×12 h light-dark cycle. They received water and food ad libitum throughout the study period.
(§2) Cannabidiol (CBD; THC Pharm, 15-60 mg/kg) and HU-485 (1-10 mg/kg) were administered intraperitoneally (ip). All drugs were dissolved in 2% Tween 80 in sterile saline.
The wood-made EPM was located in a sound attenuated and temperature controlled room (23° C.), with one incandescent light (40 W) placed 1.3 m away from the maze. The apparatus consisted of two opposing open arms (30×5 cm) perpendicular to two enclosed arms (30×5×40 cm), with a central platform common to all arms (5×5 cm). The apparatus was elevated 50 cm above the ground and an acrylic edge (1 cm) surrounded the open arms to prevent animal falls. […] The test lasted for 5 min and the animal behavior was analyzed with the help of the Anymaze Software (version 4.5, Stoelting), which indicated the position of the animal in the maze and calculated the percentage of entries (Peo) and time spent in the open arms (Pto) and the number of entries in the enclosed arms (EA). […]
(§3) Results were analyzed by one-way ANOVA followed by Duncan test. […]

[2] = tested on: Male Swiss mice; test: Forced swimming test (FST), Example 9; type: in vivo; details: doses of 3 and 10 mg/kg ip; p<0.05
Procedure: as §1, §2
Animals were submitted to 6 min of forced swimming in glass cylinders (height 25 cm, diameter 17 cm) containing 10 cm of water at 23-25° C. Immobility time (characterized by slow movements necessary to avoid drowning) was measured during the last 4-min period. The water was changed after each trial to prevent the influence of alarm substances (Zanelati et al., 2010). Antidepressants typically decrease immobility time in this test.
Results were analyzed by one-way ANOVA followed by Duncan test. Significant level was set at p<0.05.
Animals received an injection of vehicle (V, n=7 animals/group) or HU-485 and were tested in the EPM 20 min later. Immediately after the test they were submitted to the FST for 6 min. Data represents the means±SEM of immobility time in the FST and the % of open arm entries and time spent in these arms of the EPM. * indicates difference from V group.

[3] = tested on: Male Swiss mice; test: Pre-pulse inhibition (PPI), impairment induced by amphetamine; type: in vivo
Procedure: as §1, §2
The PPI test was conducted simultaneously in two identical startle response systems (Med Associates, USA). A continuous acoustic signal provided a background white noise level of 65 dB. The pulse consists of a 105 dB white noise burst with a rise/decay of 5 ms and duration of 20 ms. The pre-pulse comprised pure 7000 Hz tones, 10 ms duration, with intensities set at 80, 85, and 90 dB. The setups were daily calibrated to ensure equal sensitivity throughout the experiments. Calibration was performed by adjusting the gain on the load cell amplifier to 150 arbitrary units (AU) at a standard weight appropriated for a 40 g mice. The limits of the load cell were −2047 to +2047 AU. Thirty min after the injection of the tested compounds mice received i.p. injections of amphetamine 10 mg/kg or vehicle. […] The first 10 pulse-alone trials allow for the within-session habituation to the startle stimulus and are not considered for PPI statistical analysis. The test consisted of 64 pseudo-random trials divided into eight different groups presented with an inter-stimulus interval of 30 s, and consisting of pulse alone (105 dB), pre-pulse alone (80, 85, or 90 dB), pre-pulse+pulse with 100 ms interval between pre-pulse and pulse, and no stimulus presented. […] Mean acoustic startle response to pulse-alone (P) trials and each pre-pulse+pulse (PP+P) trial was recorded for each subject. PPI was calculated by expressing the pre-pulse+pulse startle amplitude as a percentage of decrease from pulse-alone startle amplitude, according to the following formula: % PPI=100−[100×(PP+P/P)]. This transformation reduces statistical variability attributable to differences between animals and it is a direct PPI measure. Antipsychotic drugs typically attenuate PPI impairment induced by amphetamine.
as §3
Animals received a first injection of vehicle (V) or CBD, followed 30 min later, by vehicle (n=9) or amphetamine 10 mg/kg (V+amphetamine group=9 animals). PPI was evaluated at three-stimuli intensity (90, 85 and 80 dB). […]
Animals received a first injection of vehicle (V) or HU-485, followed 30 min later, by vehicle (n=7) or amphetamine 10 mg/kg (V+amphetamine group=7 animals). PPI was evaluated at three-stimuli intensity (90, 85 and 80 dB). […]

[4] = target: T1, human CB2 (Homo sapiens, UniProt P34972); test: CB2 receptor binding assay, [3H]CP-55,940, membranes of transfected CHO cells
T1 construct: expressed in transfected cells; host or cells: CHO cells, stably transfected; crude membranes
T1 sequence (P34972 whole entry): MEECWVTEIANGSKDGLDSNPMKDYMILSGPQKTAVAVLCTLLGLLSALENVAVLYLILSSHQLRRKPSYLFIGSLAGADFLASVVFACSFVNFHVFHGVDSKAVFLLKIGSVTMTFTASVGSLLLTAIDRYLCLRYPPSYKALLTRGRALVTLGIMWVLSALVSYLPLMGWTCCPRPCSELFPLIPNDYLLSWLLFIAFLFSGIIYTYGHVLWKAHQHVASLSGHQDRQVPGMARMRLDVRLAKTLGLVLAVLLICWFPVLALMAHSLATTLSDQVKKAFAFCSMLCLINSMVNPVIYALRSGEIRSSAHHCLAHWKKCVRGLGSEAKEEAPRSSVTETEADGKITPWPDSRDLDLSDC
Procedure: For CB1 receptor binding assay synaptosomal membranes from rat brains were used. Sabra male rats weighing ˜200 g were decapitated and their brains, without the brain stem, were quickly removed. Synaptosomal membranes were prepared from the brains by centrifugation and sucrose density gradient ultracentrifugation after their homogenization. The CB2 receptor binding assays were performed using crude membranes obtained from Chinese hamster ovary (CHO) cells stably transfected with the human CB2 cDNA.
Bound and free radioligand were separated by centrifugation (13,000 rpm for 6 min). Non-specific binding, which was determined with 50 nM unlabelled CP-55,940, was subtracted. Binding experiments were repeated 2-3 times and each point performed in triplicate. The Ki values were determined using the GraphPad Prism program (La Jolla, Calif., USA) and the Cheng-Prusoff equation.

| SMILES | number of enclosed arm entries [1] | percentage of time spent in the open arms of the EPM ([1]; Duncan p<0.05) | immobility time in the FST [2] | effect on PPI by itself ([3]; 30 mg/kg, without amphetamine) | effect on PPI impairment by amphetamine ([3]; HU-485 3, 10 and 30 mg/kg, any dose, amphetamine 10 mg/kg) | Ki [4] [µM] |
| --- | --- | --- | --- | --- | --- | --- |
| CCCCCc1cc(O)c(C2C=C(CF)CC[C@H]2C(C)C)c(O)c1 (stereo partly drawn) [HU-485] | without changing | increased | decreased | did not impair PPI | not attenuated | – |
| CCCCCc1cc(O)c(C2C=C(C)C(F)C[C@H]2C(C)C)c(O)c1 (stereo partly drawn) [HU-487] | – | – | – | – | – | 4 to 5 |
